For 13 compounds, EC50 results are on record in patent US10669258B2, “3-sulfonyl-5-aminopyridine-2,4-diol APJ agonists” (BRISTOL-MYERS SQUIBB COMPANY, priority 2016, dated 2020).

The target in this test is T1, human APJ receptor (Homo sapiens, UniProt P35414).
T1 construct: expressed in transfected cells; host or cells: HEK293
T1 sequence (P35414 1-380): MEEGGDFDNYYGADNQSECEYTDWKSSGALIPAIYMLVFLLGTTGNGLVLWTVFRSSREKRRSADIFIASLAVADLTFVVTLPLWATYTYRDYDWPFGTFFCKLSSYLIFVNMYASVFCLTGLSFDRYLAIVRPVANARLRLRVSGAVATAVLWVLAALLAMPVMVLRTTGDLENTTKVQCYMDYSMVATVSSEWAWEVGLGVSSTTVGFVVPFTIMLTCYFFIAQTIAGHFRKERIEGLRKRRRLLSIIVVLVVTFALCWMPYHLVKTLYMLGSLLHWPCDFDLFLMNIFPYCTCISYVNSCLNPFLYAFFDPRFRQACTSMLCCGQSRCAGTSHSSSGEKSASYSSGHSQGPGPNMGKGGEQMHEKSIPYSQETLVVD
Briefly: Intracellular cAMP accumulation assay (APJ hcAMP, HTRF). It counts as cell-based. Conditions: HEK293 cells stably expressing human APJ receptor; inhibition of forskolin-mediated cAMP production; Table 1; read-out: hAPJ cAMP EC50 Potency range. An outline of the steps: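 HEK293 cells stably expressing the receptor (5,000/well) treated with compound plus […] and 2 μM forskolin for 30 min at room temperature; cAMP by HTRF against a cAMP standard curve. EC50 from variable-slope sigmoidal fit; Ymax as % of (Pyr1)apelin-13 inhibition.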
For orientation: cAMP levels reflect the balance of adenylyl cyclase and phosphodiesterase activity.

Structures are written as SMILES.

As usually defined, the EC50 is the concentration that produces a half-maximal response. As for `CCCCc1nc(O)c(S(=O)(=O)c2ccc(Br)cc2)c(O)c1N(CC)c1ccccc1` [Example 077, 3-((4-bromophenyl)sulfonyl)-6-butyl-5-(ethyl(phenyl)amino)pyridine-2,4-diol], the EC50 fell in the range of 10 to 100 nM.

Consider `CCCCc1nc(O)c(S(=O)(=O)c2ccc(-c3ccncc3C)cc2)c(O)c1N(CC)c1ccccc1` [Example 078, 6-butyl-5-(ethyl(phenyl)amino)-3-((4-(3-methylpyridin-4-yl)phenyl)sulfonyl)pyridine-2,4-diol], for which the EC50 lay within 0.01 to 10 nM.

As for `CCCCc1nc(O)c(S(=O)(=O)c2ccc(-c3cccnc3C)cc2)c(O)c1N(CC)c1ccccc1` [Example 079, 6-butyl-5-(ethyl(phenyl)amino)-3-((4-(2-methylpyridin-3-yl)phenyl)sulfonyl)pyridine-2,4-diol], the EC50 is 0.01 to 10 nM.

With `CCCCc1nc(O)c(S(=O)(=O)c2ccc(-c3ccnc(F)c3C)cc2)c(O)c1N(CC)c1ccccc1` [Example 080, 6-butyl-5-(ethyl(phenyl)amino)-3-((4-(2-fluoro-3-methylpyridin-4-yl)phenyl)sulfonyl)pyridine-2,4-diol], the EC50 fell in the range of 0.01 to 10 nM.

Consider `CCCCc1nc(O)c(S(=O)(=O)c2ccc(-c3ccnc(OC)c3)cc2)c(O)c1N(CC)c1ccccc1` [Example 081, 6-butyl-5-(ethyl(phenyl)amino)-3-((4-(2-methoxypyridin-4-yl)phenyl)sulfonyl)pyridine-2,4-diol], for which the EC50 lay within 0.01 to 10 nM.

As for `CCCCc1nc(O)c(S(=O)(=O)c2ccc(-n3cc(Cl)ccc3=O)cc2)c(O)c1N(CC)c1ccccc1` [Example 082, 1-(4-((6-butyl-5-(ethyl(phenyl)amino)-2,4-dihydroxypyridin-3-yl)sulfonyl)phenyl)-5-chloropyridin-2(1H)-one], the concentration for a half-maximal effect (EC50) fell in the range of 0.01 to 10 nM.

With `CCCCc1nc(O)c(S(=O)(=O)c2ccc(-c3ccccc3C#N)cc2)c(O)c1N(CC)c1ccccc1` [Example 083, 4′-((6-butyl-5-(ethyl(phenyl)amino)-2,4-dihydroxypyridin-3-yl)sulfonyl)-[1,1′-biphenyl]-2-carbonitrile], the 50% effective concentration (EC50) is 0.01 to 10 nM.

Take `CCCCc1nc(O)c(S(=O)(=O)c2ccccc2)c(O)c1N(CC)c1ccccc1` [Example 084, 6-butyl-5-(ethyl(phenyl)amino)-3-(phenylsulfonyl)pyridine-2,4-diol]: the concentration for a half-maximal effect (EC50) was 10 to 100 nM.

Turning to `CCCCc1nc(O)c(S(=O)(=O)c2ccc(-c3ccccc3C(N)=O)cc2)c(O)c1N(CC)c1ccccc1` [Example 085, 4′-((6-butyl-5-(ethyl(phenyl)amino)-2,4-dihydroxypyridin-3-yl)sulfonyl)-[1,1′-biphenyl]-2-carboxamide], the concentration for a half-maximal effect (EC50) was 0.01 to 10 nM.

As to `CCCCc1nc(O)c(S(=O)(=O)c2ccc(-c3ccc(F)nc3C)cc2)c(O)c1N(CC)c1ccccc1` [Example 086, 6-butyl-5-(ethyl(phenyl)amino)-3-((4-(6-fluoro-2-methylpyridin-3-yl)phenyl)sulfonyl)pyridine-2,4-diol], the concentration for a half-maximal effect (EC50) was in the range of 0.01 to 10 nM.

`CCCCc1nc(O)c(S(=O)(=O)c2ccc(-c3ccccc3COC)cc2)c(O)c1N(CC)c1ccccc1` [Example 087, 6-butyl-5-(ethyl(phenyl)amino)-3-((2′-(methoxymethyl)-[1,1′-biphenyl]-4-yl)sulfonyl)pyridine-2,4-diol]: the EC50 lay in the range of 0.01 to 10 nM.

Consider `CCCCc1nc(O)c(S(=O)(=O)c2ccc(-c3ccccc3)cc2)c(O)c1N(CC)c1ccccc1` [Example 088, 3-([1,1′-biphenyl]-4-ylsulfonyl)-6-butyl-5-(ethyl(phenyl)amino)pyridine-2,4-diol], for which the EC50 lay within 10 to 100 nM.

Consider `CCCCc1nc(O)c(S(=O)(=O)c2ccc(-c3ccncc3C)cc2)c(O)c1N(C)c1cccc(C)c1` [Example 090, 6-butyl-5-(methyl(m-tolyl)amino)-3-((4-(3-methylpyridin-4-yl)phenyl)sulfonyl)pyridine-2,4-diol], for which the concentration giving a half-maximal response (EC50) lay within 0.01 to 10 nM.
